Test results as given in article PMC5082792 (PLoS ONE, 2016).

Key:
HIV = system: HIV; set-up: method as in PMID 17617270, PMID 17617271; conditions: treatment-experienced patients, with optimized background regimen including DRV/r 600/100 mg BID; cited from earlier work
[1] = cited from earlier work
[2] = addition of ETR 200mg bid to DRV/r 600/100mg bid; cited from earlier work
[3] = DRV plasma trough concentration ([DRV]plasma) by UPLC-DAD in HIV-1 infected patients, by CYP3A5 genotype-based expression status; assay type: in vivo, human
Description: After a clinical assessment and in addition to the samples routinely collected for the clinical follow-up (viral load, CD4 cell count), two more blood samples were drawn immediately before drug intake, with the highest timing precision conceivable given the ambulatory context of the study recruitment. […] In order to obtain a post-intake delay as close as possible to the trough sampling time, each patient was personally contacted by phone a few days before the study visit to ensure not taking the medication prior to blood sampling.
Plasma was then collected and stored at -20°C until the day of quantification.
Genotype and allele frequencies were calculated and deviations from Hardy-Weinberg equilibrium (HWE) were evaluated using exact tests.
The patients were also classified into CYP3A5 expressors (CYP3A5*1 allele carriers) and CYP3A5 non-expressors (CYP3A5*3 homozygous).

## Cc1cc(C#N)cc(C)c1Oc1nc(Nc2ccc(C#N)cc2)nc(N)c1Br [ETR, Etravirine]
HIV
  virological efficacy, immunological recovery and clinical progression versus placebo: superiority
[1]; DRV/r with ETR 100mg twice daily compared to ETR alone
  decrease of ETR exposure: 37%

## CC(C)CN(C[C@@H](O)[C@H](Cc1ccccc1)NC(=O)O[C@H]1CO[C@H]2OCC[C@H]21)S(=O)(=O)c1ccc(N)cc1 [DRV, Darunavir]
[2]
  increase of DRV AUC: 14%
[1]; DRV/r 600/100mg bid with ETR 100mg or 200mg bid, healthy volunteers
  DRV PK parameters (in particular Ctrough and Cmax): unchanged
[3]; CYP3A5 expressors versus non-expressors, DRV with ETR
  decrease of plasma drug concentration by the drug-drug interaction: more than 55%
[3]; overall, all 135 patients
  mean [DRV]plasma (geometric mean trough concentration): 1805 ng/mL
[3]; person, CYP3A5 expressor, DRV/r and ETR, detectable viral load
  [DRV]plasma of a single patient: 652 ng/mL
[3]; subgroup DRV/r 600/100mg BID plus ETR n = 13, CYP3A5 expressors n = 5
  DRV plasma concentration (geometric mean): • 1486ng/ml • (CI95%:725–3044) • n = 5
[3]; subgroup DRV/r 600/100mg BID plus ETR n = 13, CYP3A5 non-expressors n = 8
  DRV plasma concentration (geometric mean): • 3141ng/ml • (CI95%: 2042–4831) • n = 8
[3]; subgroup DRV/r 600/100mg BID, CYP3A5 expressors n = 19
  DRV plasma concentration (geometric mean): • 2411 • (CI95%: 1895–3067) • n = 19 ng/ml
[3]; subgroup DRV/r 600/100mg BID, CYP3A5 non-expressors n = 23
  DRV plasma concentration (geometric mean): • 2430 • (CI95%: 1817–3249) • n = 23 ng/ml
[3]; subgroup DRV/r 800/100mg QD, CYP3A5 expressors n = 41
  DRV plasma concentration (geometric mean): • 1693ng/ml • (CI95%:1314–2182) • n = 41
[3]; subgroup DRV/r 800/100mg QD, CYP3A5 non-expressors n = 52
  DRV plasma concentration (geometric mean): • 1498ng/ml • (CI95%: 1227–1828) • n = 52
